Active and inactive are the calls of the source. The calls are words filed in the database; no cut-off is given here.
How the values were obtained:
[1] = molecular target: Xanthine dehydrogenase/oxidase (Homo sapiens, UniProt P47989)
Description: Inhibition of xanthine oxidase using xanthine as substrate at 30 mins by spectrophotometric analysis

[2] = test system: Rattus norvegicus; experiment: Antihyperuricemic activity in fasted rat assessed as reduction in potassium oxonate-induced uric acid level in serum at 200 mg/kg, po administered 1 hr post potassium oxonate-challenge relative to vehicle-treated control; format: functional, organism-based; design: dose 200 mg/kg
[3] = test system: Rattus norvegicus; experiment: Antihyperuricemic activity in fasted rat assessed as reduction in potassium oxonate-induced uric acid level in serum at 100 mg/kg, ip administered 1 hr post potassium oxonate-challenge relative to vehicle-treated control; format: functional; design: scale not given: the % may be the effect or the level left; settings: route intraperitoneal
[4] = Cmax in rat at 100 mg/kg, po; format: ADME, organism-based; design: dose 100 mg/kg, route oral; settings: in vivo
[5] = AUC (0 to infinity) in rat at 100 mg/kg, po; format: ADME, organism-based; design: time infinity, dose 100 mg/kg, route oral; settings: plasma
[6] = Half life in rat at 100 mg/kg, po; format: ADME, organism-based; design: dose 100 mg/kg, route oral; settings: in vivo
[7] = Tmax in rat at 100 mg/kg, po; format: ADME, organism-based; design: dose 100 mg/kg, route oral; settings: in vivo
[8] = AUClast in rat at 100 mg/kg, po; format: ADME, organism-based; design: time 0 - last, dose 100 mg/kg, route oral; settings: plasma
[9] = AUC (0 to infinity) in rat at 50 mg/kg, ip; format: ADME, organism-based; design: time infinity, dose 50 mg/kg, route intraperitoneal; settings: plasma
[10] = Tmax in rat at 50 mg/kg, ip; format: ADME, organism-based; design: dose 50 mg/kg, route intraperitoneal; settings: in vivo
[11] = AUClast in rat at 50 mg/kg, ip; format: ADME, organism-based; design: time 0 - last, dose 50 mg/kg, route intraperitoneal; settings: plasma
[12] = Half life in rat at 50 mg/kg, ip; format: ADME, organism-based; design: dose 50 mg/kg, route intraperitoneal; settings: in vivo
[13] = Cmax in rat at 50 mg/kg, ip; format: ADME, organism-based; design: dose 50 mg/kg, route intraperitoneal; settings: in vivo
[14] = test system: Rattus norvegicus; experiment: Antihyperuricemic activity in fasted rat assessed as reduction in potassium oxonate-induced uric acid level in serum at 50 mg/kg, ip administered 1 hr post potassium oxonate-challenge relative to vehicle-treated control; format: functional; design: scale not given: the % may be the effect or the level left; settings: route intraperitoneal
[15] = test system: Rattus norvegicus; experiment: Antihyperuricemic activity in fasted rat assessed as reduction in potassium oxonate-induced uric acid level in serum at 100 mg/kg, po administered 1 hr post potassium oxonate-challenge relative to vehicle-treated control; format: functional; design: scale not given: the % may be the effect or the level left
[16] = test system: Rattus norvegicus; experiment: Antihyperuricemic activity in fasted rat assessed as reduction in potassium oxonate-induced uric acid level in serum at 100 mg/kg, po administered 1 hr post potassium oxonate-challenge relative to allopurinol; format: functional
[17] = test system: Rattus norvegicus; experiment: Antihyperuricemic activity in fasted rat assessed as reduction in potassium oxonate-induced uric acid level in serum at 10 mg/kg, po administered 1 hr post potassium oxonate-challenge relative to vehicle-treated control; format: functional; design: scale not given: the % may be the effect or the level left
[18] = AUClast in rat at 10 mg/kg, po; format: ADME, organism-based; design: time 0 - last, dose 10 mg/kg, route oral; settings: plasma
[19] = Tmax in rat at 10 mg/kg, po; format: ADME, organism-based; design: dose 10 mg/kg, route oral; settings: in vivo
[20] = AUC (0 to infinity) in rat at 10 mg/kg, po; format: ADME, organism-based; design: time infinity, dose 10 mg/kg, route oral; settings: plasma
[21] = Half life in rat at 2 mg/kg, iv; format: ADME, organism-based; design: dose 2 mg/kg, route intravenous; settings: in vivo
[22] = Tmax in rat at 2 mg/kg, iv; format: ADME, organism-based; design: dose 2 mg/kg, route intravenous; settings: in vivo
[23] = Volume of distribution in rat at 2 mg/kg, iv; format: ADME, organism-based; design: dose 2 mg/kg, route intravenous; settings: in vivo
[24] = AUC (0 to infinity) in rat at 2 mg/kg, iv; format: ADME, organism-based; design: time infinity, dose 2 mg/kg, route intravenous; settings: plasma
[25] = Half life in rat at 10 mg/kg, po; format: ADME, organism-based; design: dose 10 mg/kg, route oral; settings: in vivo
[26] = Initial plasma concentration in rat at 2 mg/kg iv; format: ADME, organism-based; design: dose 2 mg/kg, route intravenous
[27] = Cmax in rat at 10 mg/kg, po; format: ADME, organism-based; design: dose 10 mg/kg, route oral; settings: in vivo
[28] = Clearance in rat at 2 mg/kg, iv; format: ADME, organism-based; design: dose 2 mg/kg, route intravenous; settings: in vivo
[29] = Cmax in rat at 2 mg/kg, iv; format: ADME, organism-based; design: dose 2 mg/kg, route intravenous; settings: in vivo
[30] = AUClast in rat at 2 mg/kg, iv; format: ADME, organism-based; design: time 0 - last, dose 2 mg/kg, route intravenous; settings: plasma

Sequence of Xanthine dehydrogenase/oxidase (P47989 whole entry): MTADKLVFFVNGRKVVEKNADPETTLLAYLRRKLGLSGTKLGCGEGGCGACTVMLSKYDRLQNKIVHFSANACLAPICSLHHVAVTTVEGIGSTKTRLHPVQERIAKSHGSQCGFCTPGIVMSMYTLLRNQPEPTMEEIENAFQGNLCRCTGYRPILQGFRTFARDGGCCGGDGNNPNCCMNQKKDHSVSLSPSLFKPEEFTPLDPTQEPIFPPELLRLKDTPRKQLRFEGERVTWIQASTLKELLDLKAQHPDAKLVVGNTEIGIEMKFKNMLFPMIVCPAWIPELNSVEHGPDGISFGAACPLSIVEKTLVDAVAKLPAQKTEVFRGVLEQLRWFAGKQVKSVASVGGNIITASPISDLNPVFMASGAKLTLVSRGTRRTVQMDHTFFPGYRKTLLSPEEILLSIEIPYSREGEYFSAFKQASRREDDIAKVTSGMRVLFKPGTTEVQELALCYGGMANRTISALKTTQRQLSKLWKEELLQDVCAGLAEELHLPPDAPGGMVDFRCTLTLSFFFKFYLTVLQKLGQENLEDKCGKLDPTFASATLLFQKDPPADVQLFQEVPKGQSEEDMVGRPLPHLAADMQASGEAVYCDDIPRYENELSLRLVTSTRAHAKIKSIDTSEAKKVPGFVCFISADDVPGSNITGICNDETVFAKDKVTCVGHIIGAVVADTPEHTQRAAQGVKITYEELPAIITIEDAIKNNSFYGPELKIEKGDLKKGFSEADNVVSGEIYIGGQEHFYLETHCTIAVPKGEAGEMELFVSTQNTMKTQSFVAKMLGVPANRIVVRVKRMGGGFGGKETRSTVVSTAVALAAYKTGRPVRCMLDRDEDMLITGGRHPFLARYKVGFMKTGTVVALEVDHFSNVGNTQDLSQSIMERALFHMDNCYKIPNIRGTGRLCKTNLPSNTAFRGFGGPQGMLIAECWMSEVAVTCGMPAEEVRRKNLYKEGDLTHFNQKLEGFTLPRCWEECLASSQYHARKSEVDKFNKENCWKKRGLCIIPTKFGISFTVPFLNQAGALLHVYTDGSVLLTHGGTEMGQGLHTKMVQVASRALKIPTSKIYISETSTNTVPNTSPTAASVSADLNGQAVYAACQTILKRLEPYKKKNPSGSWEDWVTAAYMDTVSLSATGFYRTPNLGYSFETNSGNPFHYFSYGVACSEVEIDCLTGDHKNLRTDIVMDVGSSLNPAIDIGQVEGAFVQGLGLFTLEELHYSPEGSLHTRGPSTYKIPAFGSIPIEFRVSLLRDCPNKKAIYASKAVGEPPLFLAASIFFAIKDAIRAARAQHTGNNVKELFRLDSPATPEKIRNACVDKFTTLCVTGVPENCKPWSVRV

`Nc1nc(O)cc(-c2ccc(Oc3ccccc3)cc2)n1` gave an IC50 [1] of 2470 nM.

For `CC(C)COc1ccc(-c2cc(=O)[nH]c(N)n2)cc1N`, the IC50 [1] was 6720 nM.

For `CC(C)COc1ccc(-c2cc(O)nc(N)n2)cc1C#N`, the Activity [2] was “inactive” and the Activity [3] was 124%.

`COc1ccc(-c2cc(=O)[nH]c(N)n2)cc1` gave a Cmax [4] of 23.5 µM, an AUC(0-inf) [5] of 4110 ng·h/mL and a half-life [6] of 6.59 h. For the same molecule, the Tmax [7] was 0.25 h and the AUC(0-t) [8] was 4080 ng·h/mL.

In the case of `COc1cc(-c2cc(O)nc(N)n2)ccc1OCC(C)C`, the AUC(0-inf) [9] is reported as 27700 ng·h/mL, the Tmax [10] is reported as 2 h and the AUC(0-t) [11] is reported as 27600 ng·h/mL. The half-life [12] was 0.85 h, the IC50 [1] was 950 nM and the Cmax [13] was 34.3 µM. It also gave an Activity [14] of 55%.

With `Nc1nc(-c2ccc(O)cc2)cc(=O)[nH]1` the IC50 [1] was > 30000 nM.

For `CC(C)COc1ccc(-c2cc(=O)[nH]c(N)n2)cc1OC(F)(F)F`, the IC50 [1] was > 20000 nM.

With `CC(C)COc1ccc(-c2cc(O)nc(N)n2)cc1` the Activity [15] was 23.7%, the Cmax [4] was 5.16 µM and the AUC(0-inf) [5] was 5680 ng·h/mL. For the same molecule, the half-life [6] was 3.42 h, the Tmax [7] was 0.5 h and the AUC(0-t) [8] was 4390 ng·h/mL. It also gave an Activity [3] of 77% and an Efficacy [16] of 18%.

For `CCCCOc1ccc(-c2cc(=O)[nH]c(N)n2)cc1`, the IC50 [1] was 2100 nM.

In the case of `Oc1ncnc2[nH]ncc12` [ALLOPURINOL], the Activity [17] is reported as 130% and the Activity [3] is reported as 177%.

Molecule `Nc1nc(-c2ccc(-c3ccccc3)cc2)cc(=O)[nH]1` has an AUC(0-inf) [9] of 23100 ng·h/mL, a Tmax [10] of 3.33 h and an AUC(0-t) [11] of 21900 ng·h/mL. For the same molecule, the Cmax [4] was 0.81 µM, the AUC(0-inf) [5] was 890 ng·h/mL and the half-life [6] was 2.85 h. For the same molecule, the half-life [12] was 5.52 h, the Tmax [7] was 0.88 h and the AUC(0-t) [8] was 600 ng·h/mL. For the same molecule, the Cmax [13] was 7.13 µM.

For `Nc1nc(O)cc(-c2ccc(N3CCOCC3)cc2)n1`, the IC50 [1] was 16500 nM.

In the case of `CC(C)Cc1ccc(-c2cc(O)nc(N)n2)cc1`, the IC50 [1] is reported as 4950 nM.

Molecule `CCCCSc1ccc(-c2cc(=O)[nH]c(N)n2)cc1` has an IC50 [1] of 1630 nM.

With `CC(C)COc1ccc(-c2cc(O)nc(N)n2)cc1[N+](=O)[O-]` the AUC(0-inf) [9] was 17600 ng·h/mL, the Tmax [10] was 2 h and the Activity [15] was 93%. For the same molecule, the AUC(0-t) [11] was 14000 ng·h/mL, the half-life [12] was 12.2 h and the Activity [3] was 133%. It also gave an IC50 [1] of 140 nM and a Cmax [13] of 9.59 µM.

With `CC(C)COc1ccc(-c2cc(=O)[nH]c(N)n2)cc1C#N` the AUC(0-t) [18] was 200 ng·h/mL, the Tmax [19] was 0.19 h and the AUC(0-inf) [20] was 310 ng·h/mL. For the same molecule, the half-life [21] was 0.63 h, the Tmax [22] was 1.8 min and the Vd [23] was 3.83 L/kg. It also gave an AUC(0-inf) [24] of 480 ng·h/mL, a half-life [25] of 11.4 h and a C0 [26] of 1360 ng/mL. For the same molecule, the Cmax [27] was 0.23 µM, the clearance [28] was 71.3 mL/min/kg and the Cmax [29] was 4.19 µM. It also gave an AUC(0-t) [30] of 470 ng·h/mL.

`Cc1nc(-c2ccc(OCC(C)C)c(C#N)c2)sc1C(=O)O` [FEBUXOSTAT] showed an Activity [17] of 180%, an Activity [3] of 181% and an IC50 [1] of 30 nM.

Work on `Nc1nc(O)cc(-c2ccc(OCCCO)cc2)n1` yielded an IC50 [1] of 9240 nM.

With `CC(C)COc1ccc(-c2cc(=O)[nH]c(N)n2)cc1C(N)=O` the IC50 [1] was 1920 nM.

`CC(C)Sc1ccc(-c2cc(O)nc(N)n2)cc1` gave an IC50 [1] of 2440 nM.

— ChEMBL document CHEMBL2203211, “Isocytosine-based inhibitors of xanthine oxidase: design, synthesis, SAR, PK and in vivo efficacy in rat model of hyperuricemia” (Bioorg Med Chem Lett, 2012)
